Structures are written as SMILES.

For 16 compounds, IC50 results are on record in patent US12421252B2, “Spiro (isobenzofuranazetidine) compounds for the treatment of autoimmune disease” (Hoffmann-La Roche Inc., priority 2020, dated 2025).

This assay has as its target T1, hTLR9 (Homo sapiens, UniProt Q9NR96).
T1 sequence (Q9NR96 26-1032): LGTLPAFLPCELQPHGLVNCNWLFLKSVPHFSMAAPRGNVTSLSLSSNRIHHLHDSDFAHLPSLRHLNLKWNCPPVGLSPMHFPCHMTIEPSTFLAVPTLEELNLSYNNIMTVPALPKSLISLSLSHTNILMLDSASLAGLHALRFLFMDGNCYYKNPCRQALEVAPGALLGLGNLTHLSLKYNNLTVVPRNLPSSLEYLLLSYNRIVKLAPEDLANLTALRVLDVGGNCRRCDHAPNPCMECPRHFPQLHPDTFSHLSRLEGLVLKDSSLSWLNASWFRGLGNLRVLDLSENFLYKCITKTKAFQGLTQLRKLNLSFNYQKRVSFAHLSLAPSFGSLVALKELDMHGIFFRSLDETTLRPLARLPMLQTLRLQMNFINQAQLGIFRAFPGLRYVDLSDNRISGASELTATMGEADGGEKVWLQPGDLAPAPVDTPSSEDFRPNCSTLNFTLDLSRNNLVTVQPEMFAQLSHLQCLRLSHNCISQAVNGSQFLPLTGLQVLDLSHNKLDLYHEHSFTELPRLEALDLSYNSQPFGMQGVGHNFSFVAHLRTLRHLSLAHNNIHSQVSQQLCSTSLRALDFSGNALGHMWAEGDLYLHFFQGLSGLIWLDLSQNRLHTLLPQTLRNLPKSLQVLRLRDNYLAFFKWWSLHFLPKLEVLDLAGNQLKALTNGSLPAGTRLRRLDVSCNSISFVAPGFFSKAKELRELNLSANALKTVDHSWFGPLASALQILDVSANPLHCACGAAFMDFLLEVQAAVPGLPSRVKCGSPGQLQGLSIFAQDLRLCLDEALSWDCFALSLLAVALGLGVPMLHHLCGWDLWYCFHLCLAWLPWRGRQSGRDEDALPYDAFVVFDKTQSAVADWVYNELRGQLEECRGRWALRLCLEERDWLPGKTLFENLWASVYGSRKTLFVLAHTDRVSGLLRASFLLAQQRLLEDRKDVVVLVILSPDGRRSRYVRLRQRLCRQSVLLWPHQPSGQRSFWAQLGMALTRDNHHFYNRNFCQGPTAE
The experiment in a line: HEK293-Blue-hTLR-9 cells assay. It counts as cell-based. The settings on record: HEK293-Blue-hTLR9 cells, ODN2006 stimulation, 20 hrs, SEAP reporter; read-out: HEK/hTLR9 IC50. The source says: HEK293-Blue-hTLR-9 cells assay: A stable HEK293-Blue-hTLR-9 cell line was purchased from InvivoGen (Cat. #: hkb-htlr9, San Diego, California, USA). These cells were originally designed for studying the stimulation of human TLR9 by monitoring the activation of NF-κB. A SEAP (secreted embryonic alkaline phosphatase) reporter gene was placed under the control of the IFN-β minimal promoter fused to five NF-κB and AP-1-binding sites. The SEAP was induced by activating NF-κB and AP-1 via stimulating HEK-Blue hTLR9 cells with TLR9 ligands. Therefore the reporter expression was declined by TLR9 antagonist under the stimulation of a ligand, such as ODN2006 (Cat. #: tlrl-2006-1, Invivogen, San Diego, California, USA), for incubation of 20 hrs. The cell culture supernatant SEAP reporter activity was determined using QUANTI-Blue™ kit (Cat. #: rep-qb1, Invivogen, San Diego, California, USA) at a wavelength of 640 nm, a detection medium that turns purple or blue in the presence of alkaline phosphatase.
HEK293-Blue-hTLR9 cells were incubated at a density of 250,000˜450,000 cells/mL in a volume of 170 μL in a 96-well plate in Dulbecco's Modified Eagle's medium (DMEM) containing 4.5 g/L glucose, 50 U/mL penicillin, […], 2 mM L-glutamine, 10% (v/v) heat-inactivated fetal bovine serum with addition of 20 μL test compound in a serial dilution in the presence of final DMSO at 1% and 10 μL of 20 uM ODN2006 in above DMEM, perform incubation under 37° C. in a CO2 incubator for 20 hrs. Then 20 μL of the supernatant from each well was incubated with 180 μL Quanti-blue substrate solution at 37° C. for 2 h and the absorbance was read at 620-655 nm using a spectrophotometer. The signaling pathway that TLR9 activation leads to downstream NF-κB activation has been widely accepted, and therefore similar reporter assay was modified for evaluating TLR9 antagonist.
For `C[C@@H]1CN(c2ccc(C#N)n3ncc(F)c23)C[C@H](CN2CC3(C2)OCc2cc(N4CC(C)(N)C4)ccc23)O1` [Example 1, 4-[(2S,6R)-2-[[6-(3-amino-3-methyl-azetidin-1-yl)spiro[1H-isobenzofuran-3,3′-azetidine]-1′-yl]methyl]-6-methyl-morpholin-4-yl]-3-fluoro-pyrazolo[1,5-a]pyridine-7-carbonitrile], the IC50 was determined as 131 nM.
In the case of `C[C@@H]1CN(c2ccc(C#N)n3ncc(F)c23)C[C@H](CN2CC3(C2)OCc2cc(N4CC5(CN(C)C5)C4)ccc23)O1` [Example 2, 3-fluoro-4-[(2R,6S)-2-methyl-6-[[6-(6-methyl-2,6-diazaspiro[3.3]heptan-2-yl)spiro[1H-isobenzofuran-3,3′-azetidine]-1′-yl]methyl]morpholin-4-yl]pyrazolo[1,5-a]pyridine-7-carbonitrile], the IC50 was found to be 45 nM.
Then `C[C@@H]1CN(c2ccc(C#N)n3ncc(F)c23)C[C@H](CN2CC3(C2)OCc2cc(N[C@H]4CNC[C@H]4F)ccc23)O1` [Example 3, 3-fluoro-4-[(2S,6R)-2-[[6-[[(3S,4R)-4-fluoropyrrolidin-3-yl]amino]spiro[1H-isobenzofuran-3,3′-azetidine]-1′-yl]methyl]-6-methyl-morpholin-4-yl]pyrazolo[1,5-a]pyridine-7-carbonitrile], with 47 nM; and `C[C@@H]1CN(c2ccc(C#N)n3ncc(F)c23)C[C@H](CN2CC3(C2)OCc2cc(N4CC5(CNCCO5)C4)ccc23)O1` [Example 4, 3-fluoro-4-[(2R,6S)-2-methyl-6-[[6-(5-oxa-2,8-diazaspiro[3.5]nonan-2-yl)spiro[1H-isobenzofuran-3,3′-azetidine]-1′-yl]methyl]morpholin-4-yl]pyrazolo[1,5-a]pyridine-7-carbonitrile], with 96 nM.
Take `C[C@@H]1CN(c2ccc(C#N)n3ncc(F)c23)C[C@H](CN2CC3(C2)OCc2cc(N4CC[C@](C)(N)C4)ccc23)O1` [Example 5, 4-[(2S,6R)-2-[[6-[(3S)-3-amino-3-methyl-pyrrolidin-1-yl]spiro[1H-isobenzofuran-3,3′-azetidine]-1′-yl]methyl]-6-methyl-morpholin-4-yl]-3-fluoro-pyrazolo[1,5-a]pyridine-7-carbonitrile]: the IC50 came out at 94 nM.
For the compound `C[C@@H]1CN(c2ccc(C#N)n3ncc(F)c23)C[C@H](CN2CC3(C2)OCc2cc(N4CCNCC4)ccc23)O1` [Example 6, 3-fluoro-4-[(2R,6S)-2-methyl-6-[(6-piperazin-1-ylspiro[1H-isobenzofuran-3,3′-azetidine]-1′-yl)methyl]morpholin-4-yl]pyrazolo[1,5-a]pyridine-7-carbonitrile], the IC50 worked out at 90 nM.
As for `C[C@@H]1CN(c2ccc(C#N)n3ncc(F)c23)C[C@H](CN2CC3(C2)OCc2cc(N4CC(N)C4)ccc23)O1` [Example 9, 4-[(2S,6R)-2-[[6-(3-aminoazetidin-1-yl)spiro[1H-isobenzofuran-3,3′-azetidine]-1′-yl]methyl]-6-methyl-morpholin-4-yl]-3-fluoro-pyrazolo[1,5-a]pyridine-7-carbonitrile], the IC50 came out at 84 nM.
On to `C[C@@H]1CN(c2ccc(C#N)n3ncc(F)c23)C[C@H](CN2CC3(C2)OCc2cc(N4C[C@H](N)[C@@H](O)C4)ccc23)O1` [Example 10, 4-[(2S,6R)-2-[[6-[(3S,4S)-3-amino-4-hydroxy-pyrrolidin-1-yl]spiro[1H-isobenzofuran-3,3′-azetidine]-1′-yl]methyl]-6-methyl-morpholin-4-yl]-3-fluoro-pyrazolo[1,5-a]pyridine-7-carbonitrile], for which the IC50 turned out to be 61 nM.
Then `C[C@@H]1CN(c2ccc(C#N)n3ncc(F)c23)C[C@H](CN2CC3(C2)OCc2cc(N4CC5(CNC5)C4)ccc23)O1` [Example 12, 4-[(2S,6R)-2-[[6-(2,6-diazaspiro[3.3]heptan-2-yl)spiro[1H-isobenzofuran-3,3′-azetidine]-1′-yl]methyl]-6-methyl-morpholin-4-yl]-3-fluoro-pyrazolo[1,5-a]pyridine-7-carbonitrile], with 103 nM; and `C[C@@H]1CN(c2cc(=O)n(C)c3ncccc23)C[C@H](CN2CC3(C2)OCc2cc(N4CC(N)C4)ccc23)O1` [Example 13, 4-[(2S,6R)-2-[[6-(3-aminoazetidin-1-yl)spiro[1H-isobenzofuran-3,3′-azetidine]-1′-yl]methyl]-6-methyl-morpholin-4-yl]-1-methyl-1,8-naphthyridin-2-one], with 68 nM; and `[2H]c1ccc2c(N3C[C@H](CN4CC5(C4)OCc4cc(N6C[C@@H](N)[C@H](OC)C6)ccc45)O[C@H](C)C3)ccc(C#N)c2n1` [Example 16, 5-[(2S,6R)-2-[[6-[(3R,4R)-3-amino-4-methoxy-pyrrolidin-1-yl]spiro[1H-isobenzofuran-3,3′-azetidine]-1′-yl]methyl]-6-methyl-morpholin-4-yl]-2-deuterio-quinoline-8-carbonitrile], with 32 nM.
For the compound `[2H]c1ccc2c(N3C[C@H](CN4CC5(C4)OCc4cc(N6CCNCC6)ccc45)O[C@H](C)C3)ccc(C#N)c2n1` [Example 18, 2-deuterio-5-[(2R,6S)-2-methyl-6-[(6-piperazin-1-ylspiro[1H-isobenzofuran-3,3′-azetidine]-1′-yl)methyl]morpholin-4-yl]quinoline-8-carbonitrile], the IC50 was found to be 32 nM.
The value for `C[C@@H]1CN(c2ccc(C#N)n3nccc23)C[C@H](CN2CC3(C2)OCc2cc(N4CC(N)C4)ccc23)O1` [Example 19, 4-[(2S,6R)-2-[[6-(3-aminoazetidin-1-yl)spiro[1H-isobenzofuran-3,3′-azetidine]-1′-yl]methyl]-6-methyl-morpholin-4-yl]pyrazolo[1,5-a]pyridine-7-carbonitrile] was 36 nM; that for `C[C@@H]1CN(c2ccc(C#N)n3ncc(F)c23)C[C@H](CN2CC3(C2)OCc2cc(N4CC5(CN(C)C5)C4)cnc23)O1` [Example 22, 3-fluoro-4-[(2R,6S)-2-methyl-6-[[3-(6-methyl-2,6-diazaspiro[3.3]heptan-2-yl)spiro[5H-furo[3,4-b]pyridine-7,3′-azetidine]-1′-yl]methyl]morpholin-4-yl]pyrazolo[1,5-a]pyridine-7-carbonitrile] was 57 nM.
Regarding `C[C@@H]1CN(c2ccc(C#N)n3nccc23)C[C@H](CN2CC3(C2)OCc2cc(N4CC(C)(N)C4)ncc23)O1` [Example 25, 4-[(2S,6R)-2-[[6-(3-amino-3-methyl-azetidin-1-yl)spiro[1H-furo[3,4-c]pyridine-3,3′-azetidine]-1′-yl]methyl]-6-methyl-morpholin-4-yl]pyrazolo[1,5-a]pyridine-7-carbonitrile], the IC50 is 70 nM.
For the compound `C[C@@H]1CN(c2ccc(C#N)n3nccc23)C[C@H](CN2CC3(C2)OCc2cc(N4CC(C)(N)C4)cnc23)O1` [Example 26, 4-[(2S,6R)-2-[[3-(3-amino-3-methyl-azetidin-1-yl)spiro[5H-furo[3,4-b]pyridine-7,3′-azetidine]-1′-yl]methyl]-6-methyl-morpholin-4-yl]pyrazolo[1,5-a]pyridine-7-carbonitrile], the IC50 worked out at 80 nM.
